Experimental data: patent publication US20090062359A1 (AlgoRx, priority 2002, published 2009)
Several values for one entry are separate records, joined by “and”; a condition that tells them apart may be missing. Equal entries are not always repeated.

Columns and labels:
[1] = tested on: rats; conditions: systemic, cited from earlier work
[2] = tested on: subjects undergoing transpositional osteotomy (bunionectomy); test: Bunionectomy efficacy study (Phase II): VAS pain at the operation site and rescue analgesia; type: in vivo, human; conditions: for VAS pain score, mean +/− SEM: 1000 μg into the wound, n = 11
Method: The primary efficacy endpoint was the proportion of subjects in each treatment group requiring opioid analgesia in the first 24 hours post-operatively. The proportions were compared amongst treatment groups using the Cochran-Haenszel test. Secondary efficacy end points included: i) proportion of subjects in each treatment group requiring opioid analgesia in the first 36 hour period post-operatively (Similarly, the proportions were compared amongst treatment groups using the Cochran-Haenszel test); ii) proportion of subjects in each treatment group requiring opioid analgesia in the 10 day period post-operatively (Similarly, the proportions were compared amongst treatment groups using the Cochran-Haenszel test); iii) time to first usage of opioid analgesia in each treatment group (a survival analysis approach will be used: the product-limit (Kaplan-Meier) method will be applied to time to first usage of opioid analgesia. The median time to first usage of opioid analgesia will be estimated in both treatment groups. Pairwise comparisons will be performed to test for equality of the survival curves between the 2 treatment groups using both the log-rank and the Wilcoxon test); iv) total usage of analgesia in each treatment group (the total usage of analgesia will be compared by an analysis of variance with treatment and center as independent variables. A pairwise comparison will be performed between the treatment groups); and v) VAS assessment of pain at the site of operation in each treatment group (The VAS score at each time point will be compared by an analysis of variance with treatment and center as independent variables. A pairwise comparison will be performed between the treatment groups). […] The efficacy analysis was performed on the data obtained ten days postoperatively. The safety analysis was performed based on the safety data for the entire study, including the 6 week and 12 week follow-up periods. The blind was broken at the time the efficacy analysis was performed. However, the individual treatment assignment was available to the statistical analysis group only. All other personnel involved in the study, including the Investigator, study monitor and proprietary staff, remained blinded until the entire study was completed.
The study was designed to include 40 evaluation subjects. […] Each subject had six (6) study visits: a Screening Day (Day −28 to −1), an Operation Day (Day 0), and four (4) Follow-up visits (scheduled for Days 3, 10 and weeks 6 and 12).
On Operation Day (Day 0) the following was performed: a) Pre-operation: Prior to the initiation of an ankle block, inclusion/exclusion criteria assessment was performed. […] Immediately prior to wound closure, the Investigator slowly dripped the study medication (4 mL) from a syringe into the wound, ensuring even tissue exposure. The wound was then be closed according to normal practices and procedures.
In the 24 hours following administration of study medication, vital signs (supine pulse rate and blood pressure) were recorded at 1, 2, 4 and 24 hours post administration. VAS assessment of pain at the operation site was performed at 1, 4, 8, 12 and 24 hours post administration. In those instances where VAS measurements coincide with blood sampling procedures, the VAS assessment was performed first. […] The quantity of each blood sample was 10 mL. […] Adverse events were spontaneously reported by the subject and recorded. […]

[3] = tested on: subjects with osteoarthritis of the knee; test: Osteoarthritis of the knee safety study (Phase 1): safety, tolerability and VAS pain after intra-articular infiltration; type: in vivo, human; conditions: for patients reporting transient burning pain immediately following instillation: after 2% lignocaine
Method: The primary objective of the study was to evaluate the safety and tolerability of intra-articular capsaicin, when co-administered with intra-articular local anesthetic, compared to placebo, in subjects with end-stage osteoarthritis of the knee, already scheduled to receive knee replacements.
The study was designed to include 16 evaluation subjects. […] Sixteen subjects completed the study.
Patients were treated randomly and in double-blind fashion in four treatment groups, with each group having a progressively longer interval between the intra-articular administration of study medication and subsequent total knee replacement (2, 4, 7, and 14 days). […] Gross and microscopic pathology analysis was completed for each treatment group before the next treatment group was treated.
Each subject had 3 study visits: a Screening Day (Day −7 to −1), the Treatment Day (Day 0), and a Post-Treatment Day (scheduled for Day +2, +4, +7, or +14). On the Treatment Day the subject was randomized, pre-treatment evaluation was performed. The patients were brought into the procedure room, and a VAS pain score was taken (0 mm—no pain, 100 mm—extreme pain). Once the patient had marked his or her pain on the card, he/she was prepped for knee cannulation. Once the cannula was placed, the patient received by intra-articular infiltration, 3 mg/kg (maximum dose of 200 mg) of 2% lignocaine into the knee scheduled to be replaced.
VAS pain scores as well as verbal reports were taken immediately following administration, as well as prior to knee replacement surgery. No subjects discontinued from the study due to adverse events.
On the Post-Treatment Day, study evaluation was performed followed by the scheduled knee replacement, with intra-operative bone and soft tissue biopsies performed for subsequent examination. […] This therefore left the 3 placebo and 9 active patients from the 4 day, 7 day, and 14 day cohorts.

[4] = cited from earlier work
[5] = human, in vivo, 300 ug
Method: The pharmacokinetic parameters of Cmax, Tmax, AUC(0−tlast) and t½ were evaluated.

[6] = tested on: animal models of inflammatory and neuropathic pain; conditions: administered locally; formalin test and spinal nerve ligation; cited from earlier work
[7] = tested on: patients; conditions: Langman et al, Lancet 1994; cited from earlier work

COc1cc(CNC(=O)CCCC/C=C/C(C)C)ccc1O [purified capsaicin, N-(4-hydroxy-3-methoxybenzyl)-8-methylnon-trans-6-enamide]
effect on radiation induced hyperalgesia ([1]; final doses of 25 mg/kg or less prior to ultra violet radiation): prevented radiation induced hyperalgesia
effect on pain threshold ([1]; final doses of 50 mg/kg or greater): pain threshold elevated
study subjects requiring rescue (opioid rescue) ([2]; 1000 μg prior to wound closure, within 72 hours, n=11): 45%
VAS pain score, mean +/− SEM ([2]; 8 hr): 5.5 +/− 2.3
VAS pain score, mean +/− SEM ([2]; 12 hr): 8.2 +/− 3.8
VAS pain score, mean +/− SEM ([2]; 24 hr): 1.9 +/− 1.0
VAS pain score, mean +/− SEM ([2]; 48 hr): 5.9 +/− 2.5
patients reporting transient burning pain immediately following instillation ([3]; 10 μg capsaicin intra-articular): 0 of 4
patients reporting transient burning pain immediately following instillation ([3]; 100 μg capsaicin intra-articular): 1 of 4
duration of post-administration (hyper)algesic pain ([3]; 100 μg dose group, single subject): 9 min
patients reporting transient burning pain immediately following instillation ([3]; 300 μg capsaicin intra-articular): 4 of 4
duration of post-administration (hyper)algesic pain ([3]; 300 μg dose group, individual subjects): 17 minutes and 25 minutes (2×) and 42 minutes
tolerability ([3]; 10, 100 and 300 μg intra-articular): well tolerated at all dose levels
treatment related systemic side effects ([3]; all dose levels): No treatment related systemic side effects were seen
gross and microscopic pathology ([3]; all dose levels, knee tissue at replacement): normal
onset of post-administration (hyper)algesia after administration ([3]; all episodes, 100 μg and 300 μg dose groups): ≤ 5 min
effect on proprioception at the injected knee ([3]; any dose group at any time point): no discernable effect
average duration of post injection hyperalgesia ([3]; burning sensation, 100 μg and 300 μg dose groups): less than thirty minutes
reduction of VAS pain score, before administration versus day of surgery ([3]; capsaicin group (9 active patients, 10-300 μg), 4 day, 7 day and 14 day cohorts): 62±14%
treatment related indication of efficacy (VAS) ([3]; dose levels 10 μg, 100 μg and 300 μg): No clear treatment related indication of efficacy
solubility in organic solvents ([4]; alcohol, ether, benzene and chloroform): freely soluble
solubility in water ([4]; water): practically insoluble
AUC(0−tlast) [5]: 0.49883 ng·h/mL

CN(C)CCC=C1c2ccccc2CCc2ccccc21 [amitriptyline]
local antinociceptive action [6]: produced local antinociceptive actions

CNCCCN1c2ccccc2CCc2ccccc21 [desipramine]
local antinociceptive action [6]: produced local antinociceptive actions

CN1C(C(=O)Nc2ccccn2)=C(O)c2ccccc2S1(=O)=O [piroxicam]
patients experiencing gross bleeding and ulceration [7]: up to 4%
